From ChEMBL document CHEMBL1781918, “Quinazolin-4-piperidin-4-methyl sulfamide PC-1 inhibitors: alleviating hERG interactions through structure based design” (Bioorg Med Chem Lett, 2009)

Assays:
[1] = Selectivity for PC1 to human ERG channel
[2] = target: T1, Ectonucleotide pyrophosphatase/phosphodiesterase family member 1 (Homo sapiens) (UniProt P22413); test: Inhibition of PC1 by in vitro Kinase-Glo assay
T1 sequence (whole entry): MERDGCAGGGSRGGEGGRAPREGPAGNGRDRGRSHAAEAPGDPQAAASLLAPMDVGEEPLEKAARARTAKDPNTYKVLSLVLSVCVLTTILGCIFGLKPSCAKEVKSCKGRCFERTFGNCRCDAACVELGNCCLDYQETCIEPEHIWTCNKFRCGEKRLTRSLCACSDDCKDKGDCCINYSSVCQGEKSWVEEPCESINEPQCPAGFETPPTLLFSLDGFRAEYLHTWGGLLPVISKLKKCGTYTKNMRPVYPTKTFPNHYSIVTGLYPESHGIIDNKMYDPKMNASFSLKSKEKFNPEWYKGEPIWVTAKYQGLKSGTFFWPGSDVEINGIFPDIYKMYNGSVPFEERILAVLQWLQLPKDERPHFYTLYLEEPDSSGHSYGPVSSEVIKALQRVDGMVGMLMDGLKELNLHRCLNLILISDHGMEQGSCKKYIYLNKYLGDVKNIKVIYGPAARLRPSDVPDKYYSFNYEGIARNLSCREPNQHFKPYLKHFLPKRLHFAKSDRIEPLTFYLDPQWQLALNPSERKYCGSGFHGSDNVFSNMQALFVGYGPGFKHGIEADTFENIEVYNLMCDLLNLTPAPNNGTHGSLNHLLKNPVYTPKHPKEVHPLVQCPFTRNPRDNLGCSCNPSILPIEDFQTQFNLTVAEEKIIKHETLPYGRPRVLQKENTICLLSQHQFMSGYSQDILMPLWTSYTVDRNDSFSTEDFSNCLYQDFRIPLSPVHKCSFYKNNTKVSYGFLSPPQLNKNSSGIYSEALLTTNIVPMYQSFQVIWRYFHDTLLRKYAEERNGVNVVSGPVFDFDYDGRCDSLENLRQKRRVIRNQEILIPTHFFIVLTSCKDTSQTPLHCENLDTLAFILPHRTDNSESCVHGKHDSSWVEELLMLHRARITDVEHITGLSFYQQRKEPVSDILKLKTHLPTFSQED

[3] = target: Voltage-gated inwardly rectifying potassium channel KCNH2 (Homo sapiens, UniProt Q12809); test: Displacement of [3H]-dofetilid from human ERG expressed in HEK293 cells; assay type: cell-based
Chain of Voltage-gated inwardly rectifying potassium channel KCNH2 (Q12809 whole entry): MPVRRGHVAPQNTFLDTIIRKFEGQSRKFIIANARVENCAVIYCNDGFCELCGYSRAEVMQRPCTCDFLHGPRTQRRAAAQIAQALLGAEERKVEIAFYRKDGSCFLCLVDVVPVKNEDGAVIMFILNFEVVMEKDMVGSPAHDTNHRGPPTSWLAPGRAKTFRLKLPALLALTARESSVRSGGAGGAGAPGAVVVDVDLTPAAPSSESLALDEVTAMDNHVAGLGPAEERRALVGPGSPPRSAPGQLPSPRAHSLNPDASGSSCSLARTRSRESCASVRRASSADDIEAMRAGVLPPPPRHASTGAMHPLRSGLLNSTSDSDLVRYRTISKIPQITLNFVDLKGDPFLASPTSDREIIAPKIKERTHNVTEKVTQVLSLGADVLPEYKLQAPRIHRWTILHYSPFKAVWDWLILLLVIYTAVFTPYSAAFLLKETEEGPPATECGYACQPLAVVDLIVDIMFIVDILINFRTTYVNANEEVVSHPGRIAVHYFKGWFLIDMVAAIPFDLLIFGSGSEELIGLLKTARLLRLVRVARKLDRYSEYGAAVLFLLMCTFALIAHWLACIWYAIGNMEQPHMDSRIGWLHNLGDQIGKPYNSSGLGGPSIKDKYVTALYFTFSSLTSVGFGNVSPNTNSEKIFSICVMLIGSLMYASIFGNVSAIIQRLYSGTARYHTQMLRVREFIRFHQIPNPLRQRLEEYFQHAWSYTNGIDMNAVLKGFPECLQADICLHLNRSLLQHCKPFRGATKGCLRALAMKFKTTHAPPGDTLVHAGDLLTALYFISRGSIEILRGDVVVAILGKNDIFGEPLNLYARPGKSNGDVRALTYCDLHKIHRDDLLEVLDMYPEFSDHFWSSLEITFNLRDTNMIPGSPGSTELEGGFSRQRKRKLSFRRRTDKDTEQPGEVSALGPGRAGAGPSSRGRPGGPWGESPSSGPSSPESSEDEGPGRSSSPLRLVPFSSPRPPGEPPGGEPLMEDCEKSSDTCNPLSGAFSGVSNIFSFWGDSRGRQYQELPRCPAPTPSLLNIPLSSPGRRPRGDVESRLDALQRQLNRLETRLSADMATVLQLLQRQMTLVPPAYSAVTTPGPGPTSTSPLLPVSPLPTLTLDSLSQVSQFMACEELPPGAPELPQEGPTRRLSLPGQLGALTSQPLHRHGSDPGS

COc1cc2nc(/C=C/c3cccnc3)nc(N3CCC(CCNS(N)(=O)=O)CC3)c2cc1OC
Ratio [1]: 8 | INH [2]: 0.0353 µM | INH [3]: 0.276 µM

Cc1nccn1-c1cc(N2CCC(CCNS(N)(=O)=O)CC2)ncn1
Ratio [1]: > 16 | INH [2]: 0.6 µM | INH [3]: > 10 µM

COc1cc2ncnc(N3CCC(NS(N)(=O)=O)CC3)c2cc1OC
INH [2]: > 10 µM | INH [3]: > 10 µM

NS(=O)(=O)NCCC1CCN(c2ncnc3ccc(Cl)cc23)CC1
INH [2]: 5.98 µM

COc1ccc2c(N3CCC(CNS(N)(=O)=O)CC3)ncnc2c1
Ratio [1]: > 60 | INH [2]: 0.166 µM | INH [3]: > 10 µM

Cc1nccn1-c1nccc(N2CCC(CCNS(N)(=O)=O)CC2)n1
INH [2]: 2.45 µM | INH [3]: 6.867 µM

NS(=O)(=O)NCCC1CCN(c2ncnc3cc(Cl)ccc23)CC1
INH [2]: > 10 µM | INH [3]: 3.4 µM

COc1cc2ncnc(N3CCC(CCNS(N)(=O)=O)CC3)c2cc1OC
Ratio [1]: 17 | INH [2]: 0.0362 µM | INH [3]: 0.601 µM

COc1cc2ncnc(N3CCC(CNS(N)(=O)=O)CC3)c2cc1OC
Ratio [1]: > 160 | INH [2]: 0.061 µM | INH [3]: > 10 µM

COc1ccc2c(N3CCC(CCNS(N)(=O)=O)CC3)ncnc2c1
Ratio [1]: 1 | INH [2]: 0.187 µM | INH [3]: 0.1202 µM

Cc1nccn1-c1cc(N2CCC(CNS(N)(=O)=O)CC2)ncn1
INH [2]: > 10 µM | INH [3]: > 10 µM

CCc1nc(N2CCC(CCNS(N)(=O)=O)CC2)c2cc(OC)c(OC)cc2n1
INH [2]: 0.214 µM

COc1cc2nc(/C=C/c3cccnc3)nc(N3CCC(CNS(N)(=O)=O)CC3)c2cc1OC
Ratio [1]: 52 | INH [2]: 0.063 µM | INH [3]: 3.296 µM
